According to ChEMBL document CHEMBL1201862, “PubChem BioAssay data set” (2004):
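1) Cells in 96-well plates. 2) Compound, 48 h, 5 concentrations. 3) Linear interpolation between surrounding doses. 4) Unreached endpoint = highest concentration. GI50 = concentration required for 50% inhibition of growth.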 The source made the active and inactive calls. Rule as the data show it: active = GI50 up to about 1.1 µM and inactive = higher.

How the values were obtained:
Test in all cases: NCI-60 cell line screen, 48 h
TK-10 = test system: TK-10
CCRF-CEM = test system: CCRF-CEM
786-0 = test system: 786-0
SK-MEL-5 = test system: SK-MEL-5
HT-29 = test system: HT-29
MOLT-4 = test system: MOLT-4
A549 = test system: A549
Malme-3M = test system: Malme-3M
SNB-75 = test system: SNB-75
UACC-62 = test system: UACC-62
UACC-257 = test system: UACC-257
NCI-H460 = test system: NCI-H460
UO-31 = test system: UO-31
K562 = test system: K562
ACHN = test system: ACHN
OVCAR-3 = test system: OVCAR-3

Measured: GI50

CCOC(OC1=C(C#N)CCCC1)C(CC)[Se]c1ccccc1[N+](=O)[O-] (stereo not given)
inactive: TK-10 76.2 µM | CCRF-CEM 20.6 µM | 786-0 17.8 µM | SK-MEL-5 15.1 µM | HT-29 16.8 µM | MOLT-4 25.6 µM | A549 57.5 µM | Malme-3M 22.8 µM | SNB-75 21.9 µM | UACC-62 22 µM | UACC-257 > 100 µM | NCI-H460 34.2 µM | UO-31 26.8 µM | K562 33.6 µM | ACHN 29.1 µM | OVCAR-3 26.5 µM

C[P+](C)(C)c1ccccc1
inactive: TK-10 > 100 µM | CCRF-CEM > 100 µM | 786-0 > 100 µM | SK-MEL-5 > 100 µM | HT-29 > 100 µM | MOLT-4 > 100 µM | A549 > 100 µM | Malme-3M > 100 µM | SNB-75 > 100 µM | UACC-62 > 100 µM | UACC-257 > 100 µM | NCI-H460 > 100 µM | UO-31 > 100 µM | K562 > 100 µM | ACHN > 100 µM | OVCAR-3 > 100 µM

COc1ccc(S(=O)(=O)N/N=C(\C)CN2C(=O)c3ccccc3C2=O)cc1
inactive: TK-10 > 100 µM | CCRF-CEM > 100 µM | 786-0 > 100 µM | SK-MEL-5 > 100 µM | HT-29 > 100 µM | MOLT-4 > 100 µM | A549 > 100 µM | Malme-3M > 100 µM | SNB-75 > 100 µM | UACC-62 > 100 µM | UACC-257 > 100 µM | NCI-H460 > 100 µM | UO-31 > 100 µM | K562 > 100 µM | ACHN > 100 µM | OVCAR-3 > 100 µM

CN(C)CCC(/C=C/c1ccccc1)=N\Nc1c(F)c(F)c(F)c(F)c1F
inactive: TK-10 > 100 µM | CCRF-CEM 55.6 µM | 786-0 > 100 µM | SK-MEL-5 15.5 µM | HT-29 27 µM | MOLT-4 45.1 µM | A549 72.6 µM | Malme-3M 38 µM | SNB-75 9.82 µM | UACC-62 49.2 µM | UACC-257 26.4 µM | NCI-H460 27.7 µM | UO-31 76.4 µM | K562 39.4 µM | ACHN 49.1 µM | OVCAR-3 > 100 µM

CS/C(=N\c1ccccc1)N(c1ccccc1)c1nc(=[N+](C)C)ss1.[O-][Cl+3]([O-])([O-])[O-]
inactive: TK-10 14.5 µM | 786-0 5.66 µM | SK-MEL-5 1.41 µM | MOLT-4 1.5 µM | A549 14.5 µM | Malme-3M 2.79 µM | SNB-75 4.71 µM | UACC-257 2.05 µM | UO-31 15.1 µM | ACHN 5.42 µM | OVCAR-3 1.66 µM
active: CCRF-CEM 0.508 µM | HT-29 0.034 µM | UACC-62 0.0441 µM | NCI-H460 0.0338 µM | K562 0.27 µM

Cc1cc(O)nc(NNC(C#N)c2cccc(O)c2)n1 (stereo not given)
inactive: TK-10 > 100 µM | CCRF-CEM > 100 µM | 786-0 > 100 µM | SK-MEL-5 > 100 µM | HT-29 > 100 µM | MOLT-4 > 100 µM | A549 > 100 µM | Malme-3M 79.1 µM | SNB-75 > 100 µM | UACC-62 75.7 µM | UACC-257 > 100 µM | NCI-H460 > 100 µM | UO-31 > 100 µM | K562 > 100 µM | ACHN > 100 µM | OVCAR-3 > 100 µM

CCOC(=O)[C@H]1Nc2ccc(Cl)cc2[C@H]2OCC[C@@H]12
inactive: TK-10 > 100 µM | CCRF-CEM > 100 µM | 786-0 > 100 µM | SK-MEL-5 > 100 µM | HT-29 > 100 µM | MOLT-4 > 100 µM | A549 > 100 µM | Malme-3M > 100 µM | SNB-75 > 100 µM | UACC-62 > 100 µM | UACC-257 > 100 µM | NCI-H460 > 100 µM | K562 > 100 µM | ACHN > 100 µM | OVCAR-3 > 100 µM

O=Cc1cn(C(=O)c2ccccc2)c2ccccc12
inactive: TK-10 > 100 µM | CCRF-CEM 43.2 µM | 786-0 > 100 µM | SK-MEL-5 45 µM | HT-29 71.3 µM | MOLT-4 54.2 µM | A549 > 100 µM | Malme-3M > 100 µM | SNB-75 43.6 µM | UACC-62 > 100 µM | UACC-257 83 µM | NCI-H460 > 100 µM | UO-31 36.6 µM | K562 70 µM | ACHN > 100 µM | OVCAR-3 > 100 µM

COc1ccc(C2Oc3cc(OC)c(O)cc3[C@@H]2C)cc1 (stereo not given in full)
inactive: TK-10 45.8 µM | CCRF-CEM 15.5 µM | 786-0 17.1 µM | SK-MEL-5 31.1 µM | HT-29 40.7 µM | MOLT-4 14.9 µM | A549 59 µM | Malme-3M 78 µM | SNB-75 3.08 µM | UACC-62 > 10 µM | UACC-257 44.6 µM | NCI-H460 57.9 µM | UO-31 13.8 µM | K562 31.5 µM | ACHN 16.5 µM | OVCAR-3 26.5 µM

C=C1C(=O)O[C@@H]2C[C@]3(C)[C@@H](C[C@H]12)[C@](C)(O)CC[C@@H]3O
inactive: TK-10 26.9 µM | CCRF-CEM 33.5 µM | 786-0 39.4 µM | SK-MEL-5 91.8 µM | HT-29 33.3 µM | MOLT-4 57.1 µM | A549 > 100 µM | Malme-3M 71.3 µM | SNB-75 53.3 µM | UACC-62 32.5 µM | NCI-H460 23.7 µM | UO-31 > 100 µM | K562 33.4 µM | ACHN > 100 µM | OVCAR-3 37.9 µM

CC1(c2ccc(Cl)cc2)C2C(=O)NC(=O)C1C(=O)NC2=O (stereo not given)
inactive: TK-10 > 100 µM | CCRF-CEM > 100 µM | 786-0 > 100 µM | SK-MEL-5 > 100 µM | HT-29 > 100 µM | MOLT-4 > 100 µM | A549 > 100 µM | Malme-3M > 100 µM | SNB-75 > 100 µM | UACC-62 > 100 µM | UACC-257 > 100 µM | NCI-H460 > 100 µM | UO-31 > 100 µM | K562 > 100 µM | ACHN > 100 µM | OVCAR-3 > 100 µM

Cc1ccc(C(=O)CC2=Nc3nnc(CCCCCCCc4nnc5n4C(=O)C(CC(=O)c4ccc(C)cc4)=N5)n3C2=O)cc1
inactive: TK-10 > 100 µM | CCRF-CEM > 100 µM | 786-0 > 100 µM | SK-MEL-5 > 100 µM | HT-29 > 100 µM | MOLT-4 > 100 µM | A549 > 100 µM | Malme-3M > 100 µM | SNB-75 24.2 µM | UACC-62 > 100 µM | UACC-257 > 100 µM | NCI-H460 > 100 µM | UO-31 > 100 µM | K562 > 100 µM | ACHN > 100 µM | OVCAR-3 > 100 µM
